Test results from US20260374766A1, “METHODS FOR TREATING CANCER” (Antares Therapeutics, Inc., priority 2022, published 2026).
Like-named read-outs stand apart in the source and are kept apart here.

What was measured:
[1] = system: H1299 p53 R273H; test: Cell Proliferation Assay (CellTiter-Glo, CTG), H1299 p53 R273H (NClH1299-inducible p53 R273H); assay type: cell-based; conditions: Homo sapiens, NCI-H1299, 120 h, 5 days
Method in brief: (§1)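 NClH1299 lines stably transduced with Tet-inducible p53 Y220C or R273H, plus NUGC3, were treated with compound for 5 days at 250-500 cells/well. IC50 derived from CellTiter-Glo luminescent signal after 10 min room-temperature incubation.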

[2] = system: NUGC3 p53 Y220C; test: Cell Proliferation Assay (CellTiter-Glo, CTG), NUGC3 p53 Y220C; assay type: cell-based; conditions: Homo sapiens, NUGC-3, 120 h, 5 days
Method in brief: as §1

[3] = system: H1299 p53 Y220C; test: Cell Proliferation Assay (CellTiter-Glo, CTG), H1299 p53 Y220C (NClH1299-inducible p53 Y220C); assay type: cell-based; conditions: Homo sapiens, NCI-H1299, 120 h, 5 days
Method in brief: as §1

[4] = target: p53 Y220C (Homo sapiens, UniProt P04637, Y220C); test: Luciferase Reporter Assay (Luc), p53 response element, NClH1299 cells with inducible p53 Y220C; assay type: cell-based; conditions: 6 hour; for AC50: read-out: Luc P53 Y220C AC50
Method in brief: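 Steps: seed 5,000 cells/well; induce mutant p53 with 0.5 ug/mL doxycycline for 24 h; treat with compound 6 h; add equal volume One-Glo, shake 5 min at room temperature; measure luciferase immediately.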

[5] = target: T1, p53 Y220C mutant protein (amino acid residues 94-293) (Homo sapiens, UniProt P04637, Y220C); test: Surface Plasmon Resonance (SPR) assay, Kd_kinetic; assay type: binding; conditions: SPR, p53 Y220C, read-out: SPR P53 Y220C KD kinetic
T1 construct: p53 Y220C mutant protein (amino acid residues 94-293)
T1 sequence (P04637 94-293, stated change not applied): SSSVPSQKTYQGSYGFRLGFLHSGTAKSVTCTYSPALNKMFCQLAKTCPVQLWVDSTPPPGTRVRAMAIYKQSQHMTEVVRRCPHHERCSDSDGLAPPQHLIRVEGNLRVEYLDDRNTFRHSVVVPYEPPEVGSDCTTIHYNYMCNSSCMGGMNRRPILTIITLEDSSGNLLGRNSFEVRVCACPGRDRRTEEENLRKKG
Method in brief: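 Temperature held at 16 or 20 °C during Biacore 8K runs. Buffer: 50 mM Tris, pH 7.5, 100 mM NaCl, 1 mM DTT, 0.01% Brij35, 0.05% Tween-20, 1% DMSO.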

[6] = NClH1299-inducible p53 R273H cells, CellTiter-Glo
[7] = NClH1299-inducible p53 Y220C cells, CellTiter-Glo
[8] = AC50, luciferase reporter, NClH1299 inducible p53 Y220C
[9] = Emax, luciferase reporter, NClH1299 inducible p53 Y220C
[10] = luciferase reporter, NClH1299 inducible p53 Y220C, 10 uM tool compound as positive control
[11] = luciferase reporter, NClH1299 inducible p53 Y220C
[12] = NClH1299-inducible p53 R273H cells
[13] = NClH1299-inducible p53 Y220C cells
[14] = AC50, NClH1299 cells with inducible p53 Y220C
[15] = Emax, NClH1299 cells with inducible p53 Y220C, 10 uM tool compound as positive control

O=C(NC[C@H]1CCO1)c1ccc(NCC#Cc2cc3c(N[C@@H]4CCNC[C@@H]4F)cccn3c2SC(F)(F)F)cc1 [Example 365]
IC50 [1, 6]: < 5000 nM | IC50 ([2]; NUGC3 cells, CellTiter-Glo): < 750 nM | IC50 [3, 7]: < 750 nM | AC50 [4, 8]: < 750 nM | Emax [4, 9]: 80 to 90% | Kd [5]: < 10 nM

CNC(=O)c1cc(OC)c(NCC#Cc2nc3c(N[C@@H]4CCN(C)C[C@@H]4F)cccn3c2SC(F)(F)F)cn1 [Example 120]
IC50 ([1]; CellTiter-Glo, H1299 p53 R273H): ≥ 10000 nM | IC50 ([2]; CellTiter-Glo, NUGC3 p53 Y220C): < 750 nM | IC50 ([3]; CellTiter-Glo, H1299 p53 Y220C): < 750 nM | Emax [4, 10]: 80 to 90% | AC50 [4, 11]: < 750 nM | Kd ([5]; kinetic KD): < 10 nM

CCNC(=O)c1ccc(NCC#Cc2nn3c(N[C@@H]4CCN(C)C[C@@H]4F)cccc3c2SC(F)(F)F)c(OC)c1 [Example 316]
IC50 [1, 6]: ≥ 10000 nM | IC50 ([2]; NUGC3 cells, CellTiter-Glo): < 750 nM | IC50 [3, 7]: < 750 nM | AC50 [4, 8]: < 750 nM | Emax [4, 9]: > 90% | Kd [5]: < 10 nM

CN1CC[C@@H](Nc2cccn3c(SC(F)(F)F)c(C#CCNc4ccc(P(C)(C)=O)c5ccoc45)cc23)[C@@H](F)C1 [Example 452]
IC50 [1, 6]: < 5000 nM | IC50 ([2]; NUGC3 cells, CellTiter-Glo): < 750 nM | IC50 [3, 7]: < 750 nM | AC50 [4, 8]: < 750 nM | Emax [4, 9]: > 90% | Kd [5]: < 10 nM

COc1cc(S(C)(=O)=O)ccc1NCC#Cc1cc2c(N[C@@H]3CCNC[C@@H]3F)cccn2c1SC(F)(F)F [Example 370]
IC50 [1, 6]: 5000 to 8000 nM | IC50 ([2]; NUGC3 cells, CellTiter-Glo): < 750 nM | IC50 [3, 7]: < 750 nM | AC50 [4, 8]: < 750 nM | Emax [4, 9]: > 90% | Kd [5]: < 10 nM

CNC(=O)c1ccc(NCC#Cc2cc3c(N[C@@H]4CN(C)C[C@@H]4F)cccn3c2SC(F)(F)F)c(OC)c1 [Example 386]
IC50 [1, 6]: ≥ 10000 nM | IC50 ([2]; NUGC3 cells, CellTiter-Glo): < 750 nM | IC50 [3, 7]: < 750 nM | AC50 [4, 8]: < 750 nM | Emax [4, 9]: > 90% | Kd [5]: < 10 nM

CNC(=O)c1ccc(NCC#Cc2nn3c(N[C@@H]4CCN(C)C[C@@H]4F)nccc3c2SC(F)(F)F)c(OC)c1 [Example 214, 4-{[3-(7-{[(3S,4R)-3-fluoro-1-methylpiperidin-4-yl]amino}-3-[(trifluoromethyl)sulfanyl]pyrazolo[1,5-c]pyrimidin-2-yl)prop-2-yn-1-yl]amino}-3-methoxy-N-methylbenzamide]
IC50 ([1]; CellTiter-Glo, H1299 p53 R273H): ≥ 10000 nM | IC50 ([2]; CellTiter-Glo, NUGC3 p53 Y220C): < 750 nM | IC50 ([3]; CellTiter-Glo, H1299 p53 Y220C): < 750 nM | Emax [4, 10]: > 90% | AC50 [4, 11]: < 750 nM | Kd ([5]; kinetic KD): < 10 nM

CCc1ncc(C(=O)NC)cc1NCC#Cc1nc2c(N[C@@H]3CCN(C)C[C@@H]3F)cccn2c1SC(F)(F)F [Example 273]
IC50 [1, 6]: ≥ 10000 nM | IC50 ([2]; NUGC3 cells, CellTiter-Glo): < 750 nM | IC50 [3, 7]: < 750 nM | AC50 [4, 8]: < 750 nM | Emax [4, 9]: > 90% | Kd [5]: < 10 nM

[2H]C([2H])([2H])Oc1ccc(C(=O)NC)cc1NCC#Cc1cc2c(N[C@@H]3CCN(C)C[C@@H]3F)nccn2c1SC(F)(F)F [Example 470, 3-((3-(1-(((3S,4R)-3-fluoro-1-methylpiperidin-4-yl)amino)-6-((trifluoromethyl)thio)pyrrolo[1,2-a]pyrazin-7-yl)prop-2-yn-1-yl)amino)-4-(methoxy-d3)—N-methylbenzamide]
IC50 [1, 12]: ≥ 10000 nM | IC50 ([2]; NUGC3 cells): < 750 nM | IC50 [3, 13]: < 750 nM | AC50 [4, 14]: < 750 nM | Emax [4, 15]: > 90% | Kd [5]: < 10 nM

CNC(=O)c1ccc(O)c(NCC#Cc2cc3c(N[C@@H]4CCN(C)C[C@@H]4F)cccn3c2SC(F)(F)F)c1 [Example 472]
IC50 [1, 12]: ≥ 10000 nM | IC50 ([2]; NUGC3 cells): < 750 nM | IC50 [3, 13]: < 750 nM | AC50 [4, 14]: < 750 nM | Emax [4, 15]: > 90% | Kd [5]: < 10 nM

COc1cc(C(N)=O)ccc1NCC#Cc1cc2c(N[C@@H]3CCN(C)C[C@@H]3F)nccn2c1SC(F)(F)F [Example 299]
IC50 [1, 6]: ≥ 10000 nM | IC50 ([2]; NUGC3 cells, CellTiter-Glo): < 750 nM | IC50 [3, 7]: < 750 nM | AC50 [4, 8]: < 750 nM | Emax [4, 9]: > 90% | Kd [5]: < 10 nM

CNC(=O)c1c[nH]nc1NCC#Cc1nc2c(N[C@@H]3CCN(C)C[C@@H]3F)cccn2c1SC(F)(F)F [Example 198]
IC50 ([1]; CellTiter-Glo, H1299 p53 R273H): ≥ 10000 nM | IC50 ([2]; CellTiter-Glo, NUGC3 p53 Y220C): < 750 nM | IC50 ([3]; CellTiter-Glo, H1299 p53 Y220C): < 750 nM | Emax [4, 10]: 80 to 90% | AC50 [4, 11]: < 750 nM | Kd ([5]; kinetic KD): < 10 nM

CNC(=O)c1ccc(OC)c(NCC#Cc2cc3c(N[C@@H]4CN(C)C[C@@H]4F)cccn3c2SC(F)(F)F)c1 [Example 444]
IC50 [1, 6]: ≥ 10000 nM | IC50 ([2]; NUGC3 cells, CellTiter-Glo): < 750 nM | IC50 [3, 7]: < 750 nM | AC50 [4, 8]: < 750 nM | Emax [4, 9]: > 90% | Kd [5]: < 10 nM

CNC(=O)c1ccc(OC)c(NCC#Cc2nc3c(NC4COC4)cccn3c2SC(F)(F)F)c1 [Example 240]
IC50 [1, 6]: 8000 to 10000 nM | IC50 ([2]; NUGC3 cells, CellTiter-Glo): < 750 nM | IC50 [3, 7]: < 750 nM | AC50 [4, 8]: < 750 nM | Emax [4, 9]: > 90% | Kd [5]: < 10 nM

COc1cc([S@+](C)[O-])ccc1NCC#Cc1cc2c(N[C@@H]3CCN(C)C[C@@H]3F)cccn2c1SC(F)(F)F [Example 411]
IC50 [1, 6]: ≥ 10000 nM | IC50 ([2]; NUGC3 cells, CellTiter-Glo): < 750 nM | IC50 [3, 7]: < 750 nM | AC50 [4, 8]: < 750 nM | Emax [4, 9]: > 90% | Kd [5]: < 10 nM

O=C(NC[C@@H]1CCO1)c1ccc(NCC#Cc2cc3c(N[C@@H]4CCNC[C@@H]4F)cccn3c2SC(F)(F)F)cc1 [Example 368]
IC50 [1, 6]: 5000 to 8000 nM | IC50 ([2]; NUGC3 cells, CellTiter-Glo): < 750 nM | IC50 [3, 7]: < 750 nM | AC50 [4, 8]: < 750 nM | Emax [4, 9]: 80 to 90% | Kd [5]: < 10 nM

CNC(=O)c1ccc(OC)c(NCC#Cc2nc3c(N[C@H]4C[C@@H]5CC[C@H]4N5C)cccn3c2SC(F)(F)F)c1 [Example 248]
IC50 [1, 6]: 5000 to 8000 nM | IC50 ([2]; NUGC3 cells, CellTiter-Glo): 750 to 1500 nM | IC50 [3, 7]: 750 to 1500 nM | AC50 [4, 8]: 750 to 1500 nM | Emax [4, 9]: 70 to 80% | Kd [5]: < 10 nM

O=C(NC[C@@H]1COCCO1)c1ccc(NCC#Cc2cc3c(N[C@@H]4CCNC[C@@H]4F)cccn3c2SC(F)(F)F)cc1 [Example 484]
IC50 [1, 12]: 8000 to 10000 nM | IC50 ([2]; NUGC3 cells): < 750 nM | IC50 [3, 13]: < 750 nM | AC50 [4, 14]: < 750 nM | Emax [4, 15]: > 90% | Kd [5]: < 10 nM

CNC(=O)c1cc(F)c(OC)c(NCC#Cc2cc3c(N[C@@H]4CCN(C)C[C@@H]4F)nccn3c2SC(F)(F)F)c1 [Example 337]
IC50 [1, 6]: < 5000 nM | IC50 ([2]; NUGC3 cells, CellTiter-Glo): < 750 nM | IC50 [3, 7]: < 750 nM | AC50 [4, 8]: < 750 nM | Emax [4, 9]: > 90% | Kd [5]: < 10 nM

CNC(=O)c1cnc(OC)c(NCC#Cc2nc3c(N[C@@H]4CCN(C)C[C@@H]4F)cccn3c2SC(F)F)c1 [Example 278]
IC50 [1, 6]: < 5000 nM | IC50 ([2]; NUGC3 cells, CellTiter-Glo): < 750 nM | IC50 [3, 7]: < 750 nM | AC50 [4, 8]: < 750 nM | Emax [4, 9]: 70 to 80% | Kd [5]: < 10 nM
